The subject of experiment [1] is Met. As to the kind of experiment: Inhibition of HGF-dependent Met phosphorylation in HEK293 cells. Type of experiment: cell-based, human. The note with it: 10 min with HGF+/− analog. The procedure: HEK293 cells were seeded in 6 well tissue culture plates and grown to 95% confluency in DMEM containing 10% FBS. The cells were serum deprived for 24 h prior to the treatment to reduce the basal levels of phospho-Met. Following serum starvation, cocktails comprised of vehicle and HGF with/without 6-AH analogs were prepared and pre-incubated for 30 min at room temperature. The cocktail was then added to the cells for 10 min to stimulate the Met receptor and downstream proteins. Cells were harvested using RIPA lysis buffer (Millipore; Billerica, Mass.) fortified with phosphatase inhibitor cocktails 1 and 2 (Sigma-Aldrich; St. Louis, Mo.). The lysate was clarified by centrifugation at 15,000 nx g for 15 min, protein concentrations were determined using the BCA total protein assay (Pierce), and then appropriate volumes of the lysates were diluted with 2× reducing Laemmli buffer and heated for ten min at 95° C. Samples containing identical amounts of protein were resolved using SDS-PAGE (Criterion, BioRad Laboratories), transferred to nitrocellulose, and blocked in Tris-buffered saline (TBS) containing 5% milk for 1 h at room temperature. The phospho-Met antibody were added to the blocking buffer at a final concentration of 1:1000 and incubated at 4° C. overnight with gentle agitation. The membranes were then washed several times with water and TBS ([…], 0.05% Tween-20), a 1:5000 dilution of horseradish-peroxidase conjugated goat anti-rabbit antiserum was added, and the membranes further incubated for 1 h at room temperature. Proteins were visualized using the Supersignal West Pico Chemiluminescent Substrate system (Pierce, Fenton, Mo.) and molecular weights determined by comparison to protein ladders (BenchMark, Invitrogen, and Kaleidoscope, BioRad). Film images were digitized and analyzed using a UVP phosphoimager.

Experiment [2] has as its target T1, human HGF (Homo sapiens, UniProt P14210).
T1 construct: purchased R&D Systems (Minneapolis, Minn.)
In words: HGF dimerization. The following applies: analogs at 10^−10 M, heparin, 30 minute incubation. Type of experiment: biochemical. On the procedure:
HGF dimerization was assessed using PAGE followed by silver staining (Kawas et al., 2011). Human HGF at a concentration of 0.08 ng/μl with or without 6-AH analogs was incubated with heparin at a final concentration of 5 μg/ml. Loading buffer was then added to each sample and the mixture separated by native PAGE using gradient Criterion XT precast gels (4-12% Bis-Tris; Biorad Laboratories, Hercules, Calif.). Next the gel was silver stained for the detection of the HGF monomers and dimers. Bands were quantitated from digital images using a UVP phosphoimager (Upland, Calif.).

Experiment [3] deals with MDCK cells. In words: HGF-dependent MDCK cell proliferation (MTT). It is filed as cell-based, canine. The note with it: analogs at 10^−10M, HGF 10 ng/ml, 4 days. On the procedure: 5000 MDCK cells were seeded into the wells of a 96 well plates in 10% FBS DMEM. To induce cellular quiescence, the cells were serum deprived for 24 h prior to initiating the treatments. Following serum starvation, 10 ng/ml HGF alone and with various concentrations of 6-AH analogs or PBS vehicle were added to the media. The cells were allowed to grow under these conditions for 4 days with a daily addition of 6-AH analogs. On the fourth day, 1 mg/ml of […] (MTT, Sigma-Aldrich) prepared in PBS was added to the cells and incubated for 4 h. Dimethyl sulfoxide diluted in a 0.01M glycine buffer was added to solubilize the cell membranes and the absorbance of reduced MTT in the buffer was quantitated at 590 nm using a plate reader (Biotek Synergy 2, Winooski, Vt.). HGF-dependent proliferation was determined by subtracting the basal proliferation (in the absence of HGF) from total proliferation rates in groups containing HGF.

In experiment [4] the target is T1, human HGF. As to the kind of experiment: HGF binding, competition with 3H-Hinge. The following applies: 1.25 ng HGF, 40 min at 37° C.; N=9. The procedure: The binding of 6-AH analogs to HGF was assessed by competition using a soluble binding assay. 250 μl of PBS containing human HGF (1.25 ng) were incubated with ^3H-Hinge, the central dimerization domain of HGF, in the presence of varying concentrations of 6-AH analogs between 10^−13 M to 10^−7M (half-log dilutions) for 40 min at 37° C. The incubates were then spun through Bio-Gel P6 spin columns (400 μl packed volume) for 1 min to separate free and bound ^3H-Hinge and the eluent was collected. Five milliliters of scintillation fluid was added to the eluent, which contained the HGF bound ^3H-Hinge, and was then counted using scintillation counter. Total disintegrations per minute of bound ^3H-Hinge were calculated based on machine counting efficiency. The Ki values for the binding of the peptides were determined using the Prism 5. Competition binding curves were performed in triplicate.

In experiment [5] the test system is MDCK cells. In words: Inhibition of HGF-dependent scattering in MDCK cells. The following applies: HGF 20 ng/ml, 48 h. It is filed as cell-based, canine. On the procedure:
MDCK cells were grown to 100% confluency on the coverslips in six-well plates and washed twice with PBS. The confluent coverslips were then aseptically transferred to new six well plates containing 900 μl serum free DMEM. Norleual, Hinge peptide, and/or HGF (20 ng/ml) were added to appropriate wells. Control wells received PBS vehicle. Plates were incubated at 37° C. with 5% CO2 for 48 h. Media was removed and cells were fixed with methanol. Cells were stained with Diff-Quik Wright-Giemsa (Dade-Behring, Newark, Del.) and digital images were taken. Coverslips were removed with forceps and more digital images were captured. Pixel quantification of images was achieved using Image J and statistics were performed using Prism 5 and InStat v.3.05 (GraphPad; San Diego, Calif.).

In experiment [6] the test system is rats. As to the kind of experiment: Morris water maze with i.c.v. Dihexa and HGF antagonist Hinge. It is filed as in vivo, rat.
The subject of experiment [7] is hippocampal neurons. As to the kind of experiment: Spinogenesis in mRFP-β-actin transfected dissociated hippocampal neurons. Type of experiment: cell-based, rat. The procedure: (§1) Hippocampal neurons (2×10^5 cells per square cm) were cultured from P1 Sprague Dawley rats on plates coated with poly-L-lysine from Sigma (St. Louis, Mo.; molecular weight 300,000). Hippocampal neurons were maintained in Neurobasal A media from Invitrogen (Carlsbad, Calif.) supplemented with B27 from Invitrogen, 0.5 mM L-glutamine, and […] cytosine-D-arabinofuranoside from Sigma added at 2 days in vitro. Hippocampal neurons were then cultured a further 3-7 days, at which time they were either transfected or treated with various pharmacological reagents as described in (Wayman, Davare et al. 2008).
(§2) Neurons were transfected with mRFP-β-actin on day in vitro 6 (DIV6) using LipofectAMINE™ 2000 (Invitrogen) according to the manufacturer's protocol. This protocol yielded the desired 3-5% transfection efficiency thus enabling the visualization of individual neurons. Higher efficiencies obscured the dendritic arbor of individual neurons. Expression of fluorescently tagged actin allowed clear visualization of dendritic spines, as dendritic spines are enriched in actin. […] On DIV 12 the neurons were fixed (4% paraformaldehyde, 3% sucrose, 60 mM PIPES, 25 mM HEPES, 5 mM EGTA, 1 mM MgCl2, pH 7.4) for 20 min at room temperature and mounted. Slides were dried for at least 20 hours at 4° C. and fluorescent images were obtained with Slidebook 4.2 Digital Microscopy Software driving an Olympus IX81 inverted confocal microscope with a 60× oil immersion lens, NA 1.4 and resolution 0.280 μm Dendritic spine density was measured on primary and secondary dendrites at a distance of at least 150 μm from the soma. Five 50 μm long segments of dendrite from at least 10 neurons per data point were analyzed for each data point reported. Each experiment was repeated at least three times using independent culture preparations. Dendrite length was determined using the National Institutes of Health's Image J 1.41o program (NIH, Bethesda, Md.) and the neurite tracing program Neuron J (Meijering, Jacob et al. 2004) Spines were manually counted.
as §1, with “centimeter)” for “cm)”, “P1-2” for “P1”, “the text or figure legends.” for “(Wayman, Davare et al. 2008).”
as §2, with “DIV12” for “DIV 12”, “Dendrite length was determined using the National Institutes of Health's Image J 1.41o program (NIH, Bethesda, Md.) and the neurite tracing program Neuron J (Meijering, Jacob et al. 2004) Spines were manually counted.” left out

The test system of experiment [8] is hippocampal neurons. In words: Whole-cell recordings of mEPSCs in dissociated hippocampal neurons. Type of experiment: cell-based, rat. The following applies: 10^−12 M (each), 5 days. The arrangement: unit not given beside the values.
In experiment [9] the test system is scopolamine treated rats. In words: Morris water maze, scopolamine amnesia model. The following applies: Hinge 20 ng ICV; Dihexa 2 mg/kg orally; scopolamine 70 μg ICV.
Experimental: Male Sprague-Dawley rats (Taconic derived) weighing 390-450 g were maintained with free access to water and food (Harland Tekland F6 rodent diet, Madison, Wis.) except the night prior to surgery when food was removed. Each animal was anesthetized with Ketamine hydrochloride plus Xylazine (100 and 2 mg/kg im. respectively; Phoenix Scientific; St. Joseph, Mo., and Moby; Shawnee, Kans.). […] The guide cannula measured 2.5 cm in overall length and was prepared with a heat bulge placed 2.5 mm from its beveled tip, thus acting as a stop to control the depth of penetration. Once in position, the cannula was secured to the skull with two stainless-steel screws and dental cement. Post-operatively the animals were housed individually in an American Accreditation for Laboratory Animal Care-approved vivarium maintained at 22±1° C. on a 12-h alternating light/dark cycle initiated at 06:00 h. All animals were hand gentled for 5 min per day during the 5-6 days of post-surgical recovery. Histological verification of cannula placement was accomplished by the injection of 5 μl fast-green dye via the guide cannula following the completion of behavioral testing.
A black circular platform (diameter: 12 cm; height: 24 cm) was placed 30 cm from the wall and submerged 2 cm below the water surface. The maze was operationally sectioned into four equal quadrants designated NW, NE, SW, and SE. For each rat the location of the platform was randomly assigned to one of the quadrants and remained fixed throughout the duration of training. Entry points were at the quadrant corners (i.e. N, S, E, and W) and were pseudo-randomly assigned such that each trial began at a different entry point than the preceding trial. Three of the four testing room walls were covered with extra-maze spatial cues consisting of different shapes (circles, squares, triangles) and colors. The swimming path of the animals was recorded using a computerized video tracking system (Chromotrack; San Diego Instruments, CA). […] Swim speed was determined from these values.
Each member of the treatment groups in the scopolamine studies received an icy injection of scopolamine hydrobromide (70 nmol in 2 μl aCSF over a duration of 20 s) 30 min prior to testing followed by Dihexa 10 min prior to testing. Control groups received scopolamine or aCSF 20 min prior to testing followed by aCSF 10 min prior testing. […] The rats in the aged rat study on received Dihexa of aCSF (control group). Briefly, acquisition trials were conducted on 8 consecutive days with 5 trials/day. On the first day of training the animal was placed on the platform for 30 s prior to the first trial. Trials commenced with the placement of the rat facing the wall of the maze at one of the assigned entry points. […] Once the animal located the platform it was permitted a 30 s rest period on the platform. […] The next trial commenced immediately following the rest period.
Following day 8 of acquisition training, one additional trial was conducted during which the platform was removed (probe trial). […] Total time spent within the target quadrant where the platform had been located during acquisition and the number of crossings of that quadrant was recorded.
Where [10] appears, read: aCSF followed by Hinge, no scopolamine.

Entries after “also recorded” stand apart in the source; their conditions may differ. Where a SMILES comes first, the peptide text is derived from it. [ ]: non-standard residue; d: D form. dNle = CCCC[C@@H](N)C(=O)O; Ahx = NCCCCCC(=O)O

We go through 2 compounds from patent publication US20140094413A1, “HEPATOCYTE GROWTH FACTOR (HGF) MIMICS AS THERAPEUTIC AGENTS” (WASHINGTON STATE UNIVERSITY, priority 2012, published 2014).

T1 sequence (P14210 32-728): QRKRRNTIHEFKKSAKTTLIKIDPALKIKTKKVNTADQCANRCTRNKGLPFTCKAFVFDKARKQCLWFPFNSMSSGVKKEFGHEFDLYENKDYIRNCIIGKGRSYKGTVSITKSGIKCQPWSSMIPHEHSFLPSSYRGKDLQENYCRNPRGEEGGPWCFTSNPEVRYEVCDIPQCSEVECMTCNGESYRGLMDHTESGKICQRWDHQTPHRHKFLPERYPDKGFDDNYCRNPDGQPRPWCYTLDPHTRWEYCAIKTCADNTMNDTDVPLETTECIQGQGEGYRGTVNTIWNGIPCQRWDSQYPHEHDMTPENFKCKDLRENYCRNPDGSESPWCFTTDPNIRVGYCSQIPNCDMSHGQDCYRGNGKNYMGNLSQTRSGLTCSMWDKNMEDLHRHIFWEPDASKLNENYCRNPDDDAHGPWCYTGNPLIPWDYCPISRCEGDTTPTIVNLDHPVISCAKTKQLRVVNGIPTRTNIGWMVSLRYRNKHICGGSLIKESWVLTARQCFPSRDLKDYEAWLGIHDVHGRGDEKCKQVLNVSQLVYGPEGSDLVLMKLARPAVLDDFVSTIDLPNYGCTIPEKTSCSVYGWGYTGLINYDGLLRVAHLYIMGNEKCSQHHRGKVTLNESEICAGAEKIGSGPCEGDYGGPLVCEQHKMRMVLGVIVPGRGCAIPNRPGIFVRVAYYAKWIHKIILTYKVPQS

With `CCCC[C@@H](N)C(=O)N[C@@H](Cc1c[nH]c2ccccc12)C(=O)N[C@H](C(=O)NCCCCCC(N)=O)[C@@H](C)CC` [D-Nle-Trp-Ile-NH—(CH2)5—CONH2] (H-[dNle]WI[Ahx]-NH2), the “Inhibition of HGF-dependent Met phosphorylation” value in experiment [1] was “intermediate inhibitory activity”. Further, the “Inhibition of HGF dimerization” value in experiment [2] is “intermediate inhibition of dimerization”; in experiment [2] (listed as Trp), “statistically different than the HGF treated group”. Also, the “Inhibition of HGF-dependent MDCK cell proliferation” value in experiment [3] is recorded as “showed inhibitory activity, albeit less than that observed with the most potent analogs”. For the same compound, in [4], the inhibitory constant (Ki) – broadly, a measure of affinity in units of concentration, obtained from inhibition or displacement – amounted to 3.37 nM. In addition, the “Inhibition of HGF-dependent MDCK cell scattering” value in experiment [5] is “different from the HGF alone group but not different from the control group”.
For DYIRNC (Synthetic hinge peptide), in experiment [6] (Hinge alone), the “Effect on learning in the water maze” value is reported as “no effect on learning”. In experiment [6] (setting [10]), the “Mean latency to find the pedestal, day one” value amounted to 111.1 s; the “Mean latency to find the pedestal, final day (day 8)” value came to 46.1 s; the “Mean latency to find the pedestal, fourth day” value turned out to be 78.3 s. Further, the “Inhibition of Dihexa-induced spinogenesis” value in experiment [7] (Hinge 10^−12 M, Dihexa 10^−12 M) is “did effectively inhibit spine formation; also recorded: inhibits Dihexa-induced spinogenesis; also recorded: inhibits Dihexa induced spinogenesis”. The “Inhibition of HGF-induced spinogenesis” value in experiment [7] (Hinge 10^−12 M, HGF 10 ng/ml) was “did effectively inhibit spine formation; also recorded: inhibits HGF-induced spinogenesis; also recorded: inhibits HGF induced spinogenesis”. The “Inhibition of Nle1-AngIV-induced spinogenesis” value in experiment [7] (Hinge 10^−12 M, Nle1-AngIV 10^−12 M) is given as “did effectively inhibit spine formation; also recorded: inhibits Nle1-AngIV-induced spinogenesis; also recorded: inhibits Nle^1-AngIV induced spinogenesis”. Further, the “Effect on basal spinogenesis” value in [7] (Hinge alone, wide range of doses) is “no effect on spinogenesis over a wide range of doses; also recorded: does not affect spinogenesis; also recorded: had no effect on basal spine levels”. The same compound returned a mEPSC mean frequency in [8] of 4.51±0.47. For the same compound, the “Blockade of Dihexa's reversal of scopolamine cognitive dysfunction” value in experiment [9] is “blocked”.
